Test results as given in patent publication US20070270418A1, “Inhibitors of P38 and Methods of Using the Same” (priority 2003, published 2007).
Like-named read-outs stand apart in the source and are kept apart here.

Columns and labels:
p38α = biological target: T1, p38α (Homo sapiens, UniProt Q16539); test: p38 MAP Kinase assay, ATF2 phosphorylation (ELISA); assay type: biochemical; conditions: 40 μM ATP
T1 construct: p38 MAP Kinases are recombinant human full-length proteins with an amino-terminal GST fusion; GST (N); purchased Upstate (Charlottesville, Va.); host or cells: E. coli
T1 sequence (Q16539 whole entry, the tested form may be a part): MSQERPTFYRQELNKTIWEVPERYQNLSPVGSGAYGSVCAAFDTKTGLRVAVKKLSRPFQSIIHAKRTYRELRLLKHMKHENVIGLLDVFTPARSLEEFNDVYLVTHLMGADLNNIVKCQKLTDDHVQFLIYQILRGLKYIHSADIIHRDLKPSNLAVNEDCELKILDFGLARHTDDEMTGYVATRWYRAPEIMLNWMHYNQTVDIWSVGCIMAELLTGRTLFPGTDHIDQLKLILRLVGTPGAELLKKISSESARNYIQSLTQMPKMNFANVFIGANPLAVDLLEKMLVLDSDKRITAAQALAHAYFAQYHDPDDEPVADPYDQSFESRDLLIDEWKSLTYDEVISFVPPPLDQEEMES
Outline: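 ATF2 Thr69 phosphorylation was quantified by ELISA (HRP/TMB, 450 nm) after EDTA termination. Reactions: 6 ng GST-fused full-length human p38α, 15 min compound pre-incubation at room temperature, then 30 min at 37° C with 40 μM ATP and 1.25 μM GST-ATF2 (aa 19-96), pH 7.5 HEPES buffer.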

[1] = tested on: TNFα release from THP-1 cells; test: TNFα release from LPS-stimulated THP-1 cells; assay type: cell-based
Outline: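 THP-1 cells (10^6 cells/ml on resuspension) preincubated with compound 30 min at 37°C, 5% CO2, final DMSO ≤0.5%, then stimulated with 10 μg/ml LPS for 18 h (TNFα). Supernatants collected for TNFα analysis.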

[2] = Homo sapiens, THP-1, 18 h, LPS 10 μg/ml, 18 hours, read-out: TNFα (THP-1) IC50
[3] = Homo sapiens, THP-1, 18 h, read-out: TNFα (THP-1) IC50 (nM)
[4] = LPS 10 μg/ml, 18 hours, read-out: TNFα (THP-1) IC50

Row | SMILES | IC50 (p38α) [nM] | IC50 [1, 2] [nM] | IC50 [1, 3] [nM] | IC50 [1, 4] [nM]
1 | NCCNc1nccc(-c2c(-c3ccc(F)cc3)nc3occn23)n1 [LXXXIX] | 253 | 599 | – | –
2 | Fc1ccc(CCNc2nccc(-c3c(-c4ccc(F)cc4)nc4sccn34)n2)cc1 [CCXLVII] | 4.84 | 33.2 | – | –
3 | CCNC(=O)N1CCC(Nc2nccc(-c3c(-c4ccc(F)cc4)nc4sccn34)n2)CC1 [CCLV] | 2.12 | 10.8 | – | –
4 | CC(C)C[C@H](CO)Nc1nccc(-c2c(-c3ccc(F)cc3)nc3occn23)n1 [L] | 86.6 | 125 | – | –
5 | OCCN(CCO)CCNc1nccc(-c2c(-c3ccc(F)cc3)nc3occn23)n1 [LXXVIII] | 370 | 318 | – | –
6 | CCOC(=O)N1CCC(Nc2nccc(-c3c(-c4ccc(F)cc4)nc4occn34)n2)CC1 [LXX] | 3.33 | 12.2 | – | –
7 | CC(C)(C)OC(=O)N1CCCCC1CNc1nccc(-c2c(-c3ccc(F)cc3)nc3sccn23)n1 (stereo not drawn) [CCXXXVII] | 107 | 113 | – | –
8 | C[C@H](O)CNc1nccc(-c2c(-c3ccc(F)cc3)nc3occn23)n1 [XXI] | 6.86 | 13.9 | – | –
9 | COC(=O)[C@@H](CC(C)C)Nc1nccc(-c2c(-c3ccc(F)cc3)nc3sccn23)n1 [CLXXI] | 14.9 | 3970 | – | –
10 | C[C@H](O)[C@H](CO)Nc1nccc(-c2c(-c3ccc(F)cc3)nc3occn23)n1 [CIV] | 8.62 | – | 6 | –
11 | O=C1CCCN1CCCNc1nccc(-c2c(-c3ccc(F)cc3)nc3occn23)n1 [LXVII] | 33.4 | 177 | – | –
12 | Clc1ccccc1-c1nc2occn2c1-c1ccnc(NC2CCNCC2)n1 [CCCXIV] | 14.5 | 24.6 | – | –
13 | OCCCCCCNc1nccc(-c2c(-c3ccc(F)cc3)nc3occn23)n1 [LV] | 23.1 | 25 | – | –
14 | Cc1ccccc1-c1nc2occn2c1-c1ccnc(NC2C[C@H]3CC[C@@H](C2)N3C)n1 (stereo partly drawn) [CCCXX] | 13.9 | – | 23.7 | –
15 | CC(C)(C)OC(=O)N1CCC(Nc2nccc(-c3c(-c4ccccc4Cl)nc4occn34)n2)CC1 [CCLXXXVII] | 8.2 | 170 | – | –
16 | Fc1ccc(CCNc2nccc(-c3c(-c4ccc(F)cc4)nc4occn34)n2)cc1 [CXXI] | 11.2 | 26.4 | – | –
17 | CC(C)[C@@H](CO)Nc1nccc(-c2c(-c3cccc(F)c3)nc3sccn23)n1 [CCIX] | 26 | 55.9 | – | –
18 | COc1cccc(CNc2nccc(-c3c(-c4ccc(F)cc4)nc4occn34)n2)c1OC [LXXIX] | 342 | 58.4 | – | –
19 | O=C1OCC[C@H]1Nc1nccc(-c2c(-c3ccc(F)cc3)nc3occn23)n1 [LXII] | 453 | 258 | – | –

Row | SMILES | IC50 (p38α) [nM] | IC50 [1, 2] [nM] | IC50 [1, 3] [nM] | IC50 [1, 4] [nM]
20 | COCC(C)Nc1nccc(-c2c(-c3ccc(F)cc3)nc3occn23)n1 (stereo not drawn) [XXXI] | 1.6 | 10.3 | – | –
21 | O[C@H]1Cc2ccccc2[C@H]1Nc1nccc(-c2c(-c3ccc(F)cc3)nc3occn23)n1 [LVIII] | 97.9 | 1190 | – | –
22 | OCC1(Nc2nccc(-c3c(-c4ccc(F)cc4)nc4occn34)n2)CCCC1 [LIV] | 30.2 | 11.8 | – | –
23 | FC(F)(F)c1cccc(-c2nc3occn3c2-c2ccnc(N[C@@H]3CN4CCC3CC4)n2)c1 [CCXCIII] | 4.9 | 172 | – | –
24 | OC(CNc1nccc(-c2c(-c3ccc(F)cc3)nc3occn23)n1)COc1ccccc1 (stereo not drawn) [CXX] | 36.5 | 171 | – | –
25 | CC(=O)N1CCC(Nc2nccc(-c3c(-c4ccccc4Cl)nc4occn34)n2)CC1 [CCCI] | 2.3 | 38.5 | – | –
26 | OCCCNc1nccc(-c2c(-c3ccc(F)cc3)nc3occn23)n1 [XXV] | 21.5 | 466 | – | –
27 | CCOc1nccc(-c2c(-c3ccc(F)cc3)nc3sccn23)n1 [CLI] | 122 | 284 | – | –
28 | C[C@@H](Nc1nccc(-c2c(-c3ccc(F)cc3)nc3occn23)n1)[C@@H](O)c1ccccc1 [LXVIII] | 79.1 | 140 | – | –
29 | OCC(O)CNc1nccc(-c2c(-c3ccc(F)cc3)nc3occn23)n1 (stereo not drawn) [XXXIII] | 143 | 57 | – | –
30 | C=CCNc1nccc(-c2c(-c3ccc(F)cc3)nc3occn23)n1 [XXIII] | 11.9 | 9.08 | – | –
31 | CN(C)CC(C)(C)CNc1nccc(-c2c(-c3ccccc3Cl)nc3occn23)n1 [CCLXXXII] | 44.8 | 88.4 | – | –
32 | CC[C@H](CO)Nc1nccc(-c2c(-c3ccc(F)cc3)nc3sccn23)n1 [CCXXXV] | 2.08 | 2.95 | – | –
33 | O=C(Nc1ccc(F)cc1)N1CCC(Nc2nccc(-c3c(-c4ccc(F)cc4)nc4sccn34)n2)CC1 [CCLVI] | 1.07 | 9.68 | – | –
34 | OCCCCCNc1nccc(-c2c(-c3ccc(F)cc3)nc3occn23)n1 [XLVI] | 23.1 | 17.2 | – | –
35 | Fc1ccc(-c2nc3occn3c2-c2ccnc(N[C@H]3CN4CCC3CC4)n2)c(Cl)c1 [CCXCV] | 9.7 | 8.7 | – | –
36 | CS(=O)(=O)N1CCC(Nc2nccc(-c3c(-c4ccc(F)cc4)nc4sccn34)n2)CC1 [CCLXI] | 1.31 | 3.08 | – | –
37 | CN(C)CCNc1nccc(-c2c(-c3ccc(F)cc3)nc3occn23)n1 [XXVI] | 480 | 100 | – | –
38 | CC(O)CNc1nccc(-c2c(-c3ccc(F)cc3)nc3occn23)n1 (stereo not drawn) [XVI] | 37.1 | – | – | 19.3

Row | SMILES | IC50 (p38α) [nM] | IC50 [1, 2] [nM] | IC50 [1, 3] [nM] | IC50 [1, 4] [nM]
39 | CS(=O)(=O)N1CCC(Nc2nccc(-c3c(-c4cccc(C(F)(F)F)c4)nc4occn34)n2)CC1 [CCCXVI] | 0.9 | 33.7 | – | –
40 | CS(=O)(=O)c1nccc(-c2c(-c3ccccc3)nc3sccn23)n1 [CXXXII] | 373 | > 10000 | – | –
41 | CC(C)[C@H](CO)Nc1nccc(-c2c(-c3ccc(F)cc3)nc3occn23)n1 [CIII] | 7.57 | 20 | – | –
42 | OC(CNc1nccc(-c2c(-c3ccc(F)cc3)nc3sccn23)n1)COc1ccccc1 (stereo not drawn) [CCLI] | 14.3 | 84.9 | – | –
43 | CC(CO)Nc1nccc(-c2c(-c3ccc(F)cc3)nc3sccn23)n1 (stereo not drawn) [CXCIII] | 6.19 | 8.38 | – | –
44 | OC(CNc1nccc(-c2c(-c3ccc(F)cc3)nc3occn23)n1)c1ccccc1 (stereo not drawn) [LII] | 54.5 | – | – | 60.9
45 | COc1nccc(-c2c(-c3ccc(F)cc3)nc3sccn23)n1 [CLV] | 286 | 402 | – | –
46 | Fc1ccc(-c2nc3occn3c2-c2ccnc(N[C@H]3CN4CCC3CC4)n2)c(F)c1 [CCCIV] | 3.8 | – | 1.7 | –
47 | COc1ccc(CNc2nccc(-c3c(-c4ccc(F)cc4)nc4occn34)n2)cc1OC [LXXIV] | 72.8 | 519 | – | –
48 | CC(O)CNc1nccc(-c2c(-c3ccc(F)cc3)nc3occn23)n1 (stereo not drawn) [XV] | 30.7 | 18.8 | – | –
49 | CC(C)[C@@H](CO)Nc1nccc(-c2c(-c3ccc(F)cc3)nc3sccn23)n1 [CCXXXI] | 1.13 | 5.67 | – | –
50 | OC1(CNc2nccc(-c3c(-c4ccc(F)cc4)nc4occn34)n2)CCCCC1 [CXVII] | 20.6 | 47 | – | –
51 | Oc1cccc(C(O)CNc2nccc(-c3c(-c4ccc(F)cc4)nc4sccn34)n2)c1 (stereo not drawn) [CCXLVI] | 3.06 | 23.9 | – | –
52 | CCSCCNc1nccc(-c2c(-c3ccc(F)cc3)nc3occn23)n1 [XLIV] | 10.5 | 34.5 | – | –
53 | Cc1ccc(-c2nc3sccn3c2-c2ccnc(N[C@H](CO)C(C)C)n2)cc1 [CCXI] | 147 | 58.9 | – | –
54 | Fc1ccc(-c2nc3occn3c2-c2ccnc(NC3CCNCC3)n2)c(Cl)c1 [CCLXXXVI] | 7 | 67.3 | – | –
55 | CC(C)[C@@H](CO)Nc1nccc(-c2c(-c3ccc(Br)cc3)nc3sccn23)n1 [CCI] | 75.7 | 101 | – | –
56 | COCCCNc1nccc(-c2c(-c3ccc(F)cc3)nc3occn23)n1 [XCVII] | 1.41 | 12.1 | – | –
57 | CN1[C@@H]2CC[C@H]1C[C@@H](Nc1nccc(-c3c(-c4ccc(F)cc4Cl)nc4occn34)n1)C2 [CCXCVI] | 3.6 | – | 15.5 | –
